IC50 data for 1 compound are collected here from publication PMC3564010, “Exposure to Acetylcholinesterase Inhibitors Alters the Physiology and Motor Function of Honeybees” (Frontiers in Physiology, 2013).

The subject of the assay is T1, AChE (honeybee gut lysate).
T1 construct: gene AChE-1; total AChE activity
Nature of the assay: Ellman assay, […] nm, Hill fit. Particulars: gut homogenate; […] min incubation; […] acetylthiocholine iodide, […] DTNB; PBS. Format: biochemical, Apis mellifera mellifera.

As usually defined, the IC50 is the concentration that inhibits the measured activity by half. As to `COc1cc2c(cc1OC)C(=O)C(CC1CCN(Cc3ccccc3)CC1)C2` (stereo not shown) [Donepezil], the IC50 turned out to be 0.115 ± 0.00586 µM.
